In the NIST ThermoML archive (doi:10.1016/j.fluid.2014.04.002):

Experiment: xn = mol fraction of the nth substance listed
Conditions: 101 kPa, Liquid; for viscosity: Concentric cylinders viscometry; for mass density: Vibrating tube method

CCOC(=O)C(C)O (stereo not drawn) [DL-ethyl lactate] + C1CCOC1
Conditions	mass density [kg/m3]	viscosity [mPa·s]
288.15 K, x1 = 0.1002	913.682	0.6267
288.15 K, x1 = 0.2001	932.177	0.7629
288.15 K, x1 = 0.3001	949.134	0.9181
288.15 K, x1 = 0.4001	964.944	1.095
288.15 K, x1 = 0.4999	979.595	1.313
288.15 K, x1 = 0.5999	993.315	1.58
288.15 K, x1 = 0.6999	1006.15	1.91
288.15 K, x1 = 0.7999	1018.13	2.309
288.15 K, x1 = 0.8997	1029.17	2.754
288.15 K, x1 = 1	1039.28	3.207
293.15 K, x1 = 0.1002	908.275	0.5901
293.15 K, x1 = 0.2001	926.796	0.7128
293.15 K, x1 = 0.3001	943.748	0.8562
293.15 K, x1 = 0.4001	959.567	1.013
293.15 K, x1 = 0.4999	974.209	1.2
293.15 K, x1 = 0.5999	987.924	1.426
293.15 K, x1 = 0.6999	1000.76	1.701
293.15 K, x1 = 0.7999	1012.74	2.028
293.15 K, x1 = 0.8997	1023.77	2.389
293.15 K, x1 = 1	1033.84	2.75
298.15 K, x1 = 0.1002	902.835	0.5622
298.15 K, x1 = 0.2001	921.368	0.6721
298.15 K, x1 = 0.3001	938.334	0.8003
298.15 K, x1 = 0.4001	954.154	0.9386
298.15 K, x1 = 0.4999	968.8	1.103
298.15 K, x1 = 0.5999	982.515	1.297
298.15 K, x1 = 0.6999	995.342	1.527
298.15 K, x1 = 0.7999	1007.32	1.799
298.15 K, x1 = 0.8997	1018.34	2.096
298.15 K, x1 = 1	1028.39	2.39
303.15 K, x1 = 0.1002	897.364	0.5357
303.15 K, x1 = 0.2001	915.916	0.6349
303.15 K, x1 = 0.3001	932.893	0.7493
303.15 K, x1 = 0.4001	948.718	0.8721
303.15 K, x1 = 0.4999	963.363	1.016
303.15 K, x1 = 0.5999	977.073	1.183
303.15 K, x1 = 0.6999	989.9	1.38
303.15 K, x1 = 0.7999	1001.88	1.607
303.15 K, x1 = 0.8997	1012.89	1.854
303.15 K, x1 = 1	1022.92	2.097
308.15 K, x1 = 0.1002	891.857	0.5111
308.15 K, x1 = 0.2001	910.441	0.6006
308.15 K, x1 = 0.3001	927.416	0.7023
308.15 K, x1 = 0.4001	943.254	0.8122
308.15 K, x1 = 0.4999	957.89	0.9381
308.15 K, x1 = 0.5999	971.596	1.084
308.15 K, x1 = 0.6999	984.431	1.255
308.15 K, x1 = 0.7999	996.411	1.449
308.15 K, x1 = 0.8997	1007.43	1.657
308.15 K, x1 = 1	1017.42	1.858
313.15 K, x1 = 0.1002	886.313	0.4852
313.15 K, x1 = 0.2001	904.918	0.5661
313.15 K, x1 = 0.3001	921.903	0.659
313.15 K, x1 = 0.4001	937.749	0.7575
313.15 K, x1 = 0.4999	952.388	0.8692
313.15 K, x1 = 0.5999	966.093	0.9979
313.15 K, x1 = 0.6999	978.93	1.146
313.15 K, x1 = 0.7999	990.912	1.313
313.15 K, x1 = 0.8997	1001.93	1.489
313.15 K, x1 = 1	1011.9	1.658
318.15 K, x1 = 0.1002	880.728	0.4556
318.15 K, x1 = 0.2001	899.348	0.5305
318.15 K, x1 = 0.3001	916.356	0.6187
318.15 K, x1 = 0.4001	932.209	0.7066
318.15 K, x1 = 0.4999	946.847	0.8068
318.15 K, x1 = 0.5999	960.559	0.92
318.15 K, x1 = 0.6999	973.398	1.052
318.15 K, x1 = 0.7999	985.384	1.196
318.15 K, x1 = 0.8997	996.4	1.348
318.15 K, x1 = 1	1006.36	1.491
323.15 K, x1 = 0.1002	875.1	0.4242
323.15 K, x1 = 0.2001	893.744	0.5003
323.15 K, x1 = 0.3001	910.77	0.5839
323.15 K, x1 = 0.4001	926.634	0.6648
323.15 K, x1 = 0.4999	941.277	0.755
323.15 K, x1 = 0.5999	954.994	0.8565
323.15 K, x1 = 0.6999	967.835	0.9727
323.15 K, x1 = 0.7999	979.827	1.103
323.15 K, x1 = 0.8997	990.842	1.235
323.15 K, x1 = 1	1000.79	1.349
